Here are results for ten compounds from BindingDB's records for doi:10.1016/j.bioorg.2017.01.003 (Comsats Institute of Information Technology, 2017).

Experiment [1] concerns the target Intestinal-type alkaline phosphatase (Bos taurus, UniProt P19111). Kind of experiment: Alkaline Phosphatase Assay. Conditions: pH 9.8; 37 °C. On the procedure: Alkaline phosphatase assay was optimized and performed in the same way as previously reported method with slight modifications [Sergienko et al., Nat. Protoc., 5:1431-1439]. All compounds were analyzed at a final concentration of 200 μM (1% DMSO) by using assay buffer with composition of […] diethanolamine (DEA) (pH 9.8), 0.05 mM ZnCl2 and 2.5 mM MgCl2. The total reaction volume was kept 50 μL containing 10 μL of tested compound, 20 μL of b-TNAP (1:800 (0.8 units/mL) diluted enzyme in assay buffer) or c-IAP (1:800 (1 units/mL) diluted enzyme in assay buffer). After incubation for 3-5 min at 37 °C., the luminescence was measured as a pre-read using microplate reader (BioTek FLx800, Instruments, Inc. USA). Then, 20 μL of substrate (CDPstar®) (final concentration of 110 μM) was added to the reaction mixture to initiate the enzymatic reaction. The change in the luminescence was recorded after 15 min. at 37 °C. The activity of each compound was measured in comparison with control (without any inhibitor). Levamisole (2 mM per well) and L-phenylalanine (4 mM per well) were used as standards (positive control) against b-TNAP) and c-IAP), respectively.

For experiment [2], the target named is 5'-nucleotidase (Homo sapiens, UniProt P21589). The experiment is described as follows: Ecto-5'-Nucleotidase Inhibition Assay. To be noted: pH 7.4; 37 °C. On the procedure:
(§1) Then the mixture was placed in water bath at 99 °C for 20 min to stop the enzymatic reaction by thermal denaturation of protein. The aliquots of 50 μL of this reaction mixture were transferred into CE mini vials and injected hydrodynamically into the capillary under pressure of 0.5 psi for 5 s, followed by the application of 15 kV voltage for separation of substrate and product peaks.

The target of experiment [3] is T1, 5'-nucleotidase (Rattus norvegicus, UniProt P21588).
T1 sequence (P21588 whole entry): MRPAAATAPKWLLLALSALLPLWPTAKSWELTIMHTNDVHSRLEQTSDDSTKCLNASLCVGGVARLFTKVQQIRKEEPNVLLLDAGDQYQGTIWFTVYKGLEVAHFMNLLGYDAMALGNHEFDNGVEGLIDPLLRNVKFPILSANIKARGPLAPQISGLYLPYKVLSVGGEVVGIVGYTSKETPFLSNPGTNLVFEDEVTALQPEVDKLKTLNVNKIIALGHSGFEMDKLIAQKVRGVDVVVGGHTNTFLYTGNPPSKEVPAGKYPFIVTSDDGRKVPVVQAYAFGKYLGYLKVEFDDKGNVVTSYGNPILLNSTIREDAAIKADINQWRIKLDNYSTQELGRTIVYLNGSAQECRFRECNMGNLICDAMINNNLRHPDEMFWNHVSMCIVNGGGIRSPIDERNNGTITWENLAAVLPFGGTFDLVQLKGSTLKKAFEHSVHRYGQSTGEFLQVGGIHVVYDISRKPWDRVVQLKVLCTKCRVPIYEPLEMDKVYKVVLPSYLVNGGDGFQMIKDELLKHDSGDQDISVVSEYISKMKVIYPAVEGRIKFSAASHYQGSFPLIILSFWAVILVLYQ
Kind of experiment: Ecto-5'-Nucleotidase Inhibition Assay. To be noted: pH 7.4; 37 °C. How it is done:
as §1

The nature of experiment [4]: Alkaline Phosphatase Assay. Conditions: pH 9.8; 37 °C.

Sequence of Intestinal-type alkaline phosphatase (P19111 whole entry): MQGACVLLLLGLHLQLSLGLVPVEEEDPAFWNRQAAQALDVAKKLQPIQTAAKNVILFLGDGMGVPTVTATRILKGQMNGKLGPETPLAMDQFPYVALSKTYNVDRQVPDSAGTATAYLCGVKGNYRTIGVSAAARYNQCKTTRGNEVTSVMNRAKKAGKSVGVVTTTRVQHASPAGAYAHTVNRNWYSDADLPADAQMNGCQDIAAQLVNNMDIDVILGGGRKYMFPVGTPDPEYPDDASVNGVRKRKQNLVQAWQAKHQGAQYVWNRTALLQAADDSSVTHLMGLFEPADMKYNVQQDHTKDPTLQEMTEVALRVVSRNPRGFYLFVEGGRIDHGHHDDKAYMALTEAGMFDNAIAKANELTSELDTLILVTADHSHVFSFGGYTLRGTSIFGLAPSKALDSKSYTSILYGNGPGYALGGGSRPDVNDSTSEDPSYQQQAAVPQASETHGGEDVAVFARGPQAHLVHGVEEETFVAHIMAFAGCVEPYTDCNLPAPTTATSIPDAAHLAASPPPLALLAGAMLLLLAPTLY
Sequence of 5'-nucleotidase (Homo sapiens, UniProt P21589) (P21589 whole entry): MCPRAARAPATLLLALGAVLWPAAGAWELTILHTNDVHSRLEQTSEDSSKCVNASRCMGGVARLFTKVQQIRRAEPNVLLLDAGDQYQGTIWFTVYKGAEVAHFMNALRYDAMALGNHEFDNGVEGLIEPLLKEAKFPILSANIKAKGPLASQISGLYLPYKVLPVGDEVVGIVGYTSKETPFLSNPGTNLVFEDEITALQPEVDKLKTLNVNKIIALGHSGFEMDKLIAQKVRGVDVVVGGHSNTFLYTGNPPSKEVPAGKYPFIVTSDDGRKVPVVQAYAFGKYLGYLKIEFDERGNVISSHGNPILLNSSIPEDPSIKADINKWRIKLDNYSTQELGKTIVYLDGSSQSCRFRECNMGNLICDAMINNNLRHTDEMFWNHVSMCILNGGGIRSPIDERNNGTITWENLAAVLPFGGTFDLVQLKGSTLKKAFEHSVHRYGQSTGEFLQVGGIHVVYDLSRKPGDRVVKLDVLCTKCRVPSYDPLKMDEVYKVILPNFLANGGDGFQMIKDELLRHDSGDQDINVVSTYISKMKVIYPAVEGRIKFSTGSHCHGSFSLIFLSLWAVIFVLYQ

The IC50 is the midpoint of a concentration-inhibition curve. As to `COc1cc(/C=C/C(=O)/C(=N/Nc2ccc(S(N)(=O)=O)cc2)N2CCOCC2)cc(OC)c1OC` [(Z)-4-(2-((E)-1-morpholino-2-oxo-4-(3,4,5-Trimethoxyphenyl)but-3-enylidene) hydrazinyl)benzenesulfonamide (4f)], the half-maximal inhibitory concentration (IC50) in experiment [1] worked out at 2.57 µM; against 5'-nucleotidase [2], 1.75 µM; against 5'-nucleotidase [3], 0.68 µM.
Consider `NS(=O)(=O)c1ccc(N/N=C(/C(=O)/C=C/c2cccc([N+](=O)[O-])c2)N2CCOCC2)cc1` [(Z)-4-(2-((E)-1-morpholino-4-(3-Nitrophenyl)-2-oxobut-3-enylidene)hydrazinyl) benzenesulfonamide (4j)], for which the midpoint of inhibition in experiment [1], the IC50, lay at 0.74 µM.
On to `NS(=O)(=O)c1ccc(N/N=C(/C(=O)/C=C/c2ccc(Cl)cc2Cl)N2CCOCC2)cc1` [(Z)-4-(2-((E)-4-(2,4-dichlorophenyl)-1-morpholino-2-oxobut-3-enylidene)hydrazinyl) benzenesulfonamide (4b)], for which the IC50 turned out to be 0.68 µM in experiment [1], 3.32 µM on 5'-nucleotidase [2] and 2.85 µM on 5'-nucleotidase [3].
The like results for `NS(=O)(=O)c1ccc(N/N=C(/C(=O)/C=C/c2ccccc2Br)N2CCOCC2)cc1` [(Z)-4-(2-((E)-4-(2-bromophenyl)-1-morpholino-2-oxobut-3-enylidene)hydrazinyl) benzenesulfonamide (4i)] were, in that order, 1.21 µM, 2.92 µM and 22.4 µM.
The corresponding values for `NS(=O)(=O)c1ccc(N/N=C(/C(=O)/C=C/c2ccccc2Cl)N2CCOCC2)cc1` [(Z)-4-(2-((E)-4-(2-chlorophenyl)-1-morpholino-2-oxobut-3-enylidene)hydrazinyl) benzenesulfonamide (4a)] are 0.12 µM, 11.6 µM and 6.43 µM.
In the case of `NS(=O)(=O)c1ccc(N/N=C(/C(=O)/C=C/c2ccccc2F)N2CCOCC2)cc1` [(Z)-4-(2-((E)-4-(2-fluorophenyl)-1-morpholino-2-oxobut-3-enylidene)hydrazinyl) benzene-sulfonamide (4g)], it took 0.44 µM to reach half-maximal inhibition in experiment [1] (IC50).
On to `COc1ccc(/C=C/C(=O)/C(=N/Nc2ccc(S(N)(=O)=O)cc2)N2CCOCC2)cc1OC` [(Z)-4-(2-((E)-4-(3,4-dimethoxyphenyl)-1-morpholino-2-oxobut-3-enylidene) hydrazinyl) benzenesulfonamide (4e)], for which the values for the IC50 (in experiment [1]; at 5'-nucleotidase [3]) were 0.35 µM and 7.41 µM, respectively.
Compound `NS(=O)(=O)c1ccc(N/N=C(/C(=O)/C=C/c2cccc(F)c2)N2CCOCC2)cc1` [(Z)-4-(2-((E)-4-(3-fluorophenyl)-1-morpholino-2-oxobut-3-enylidene)hydrazinyl) benzenesulfonamide (4h)] had an IC50 in experiment [1] of 0.73 µM.
Same read-out and setting: with `COc1cccc(/C=C/C(=O)/C(=N/Nc2ccc(S(N)(=O)=O)cc2)N2CCOCC2)c1` [(Z)-4-(2-((E)-4-(3-methoxyphenyl)-1-morpholino-2-oxobut-3-enylidene)hydrazinyl) benzenesulfonamide (4c)] the figure was 0.99 µM.
Consider `COc1ccc(/C=C/C(=O)/C(=N/Nc2ccc(S(N)(=O)=O)cc2)N2CCOCC2)cc1` [(Z)-4-(2-((E)-4-(4-methoxyphenyl)-1-morpholino-2-oxobut-3-enylidene)hydrazinyl) benzenesulfonamide (4d)], for which the results for the concentration for half-maximal inhibition (IC50) in experiment [1] and in experiment [4] were 1.71 µM and 0.33 µM, respectively.
